One compound from patent US20070105115A1, “Promoter of the human fatp5 gene and uses” (MERCK SANTE, priority 2003, published 2007) can be followed below.

The test system of test [1] is ZDF rats. Briefly: Reversal of the diabetic phenotype in the ZDF rat by an insulin sensitizer. Type of test: in vivo. The conditions noted are these: LGD 1069 in food 0.3-30 mg/kg/day for 50 days from age 7 weeks. The method, then:
Male diabetic fatty rats (Zucker diabetic fatty rats (ZDF rats)) are kept in an animal house with free access to food and water, the nyctohemeral rhythm being observed. The compound LGD 1069 is added to the food at a dose of 0.3, 1.0, 3.0, 10 or 30 mg/kg/day and administered for 50 days as from the age of 7 weeks. 4 animals are fed without the addition of LGD 1069: 2 ZDF and 2 ZLC. The animals are fasted and sacrificed the next day. The tissues are collected and frozen immediately in liquid nitrogen.

Test [2] relates to FATP5. Briefly: Hepatic FATP5 expression (Northern blotting) in ZDF rats treated with LGD 1069. The format is in vivo, rat. The conditions noted are these: LGD 1069 in food 0.3-30 mg/kg/day for 50 days from age 7 weeks; Northern blot; FIG. 15. The method, then: Male diabetic fatty rats (Zucker diabetic fatty rats (ZDF rats)) are kept in an animal house with free access to food and water, the nyctohemeral rhythm being observed.
The compound LGD 1069 is added to the food at a dose of 0.3, 1.0, 3.0, 10 or 30 mg/kg/day and administered for 50 days as from the age of 7 weeks. 4 animals are fed without the addition of LGD 1069: 2 ZDF and 2 ZLC. The animals are fasted and sacrificed the next day. The tissues are collected and frozen immediately in liquid nitrogen.
The hepatic RNAs are extracted by the conventional technique derived from Chomczynski and Sacchi. The expression is analysed by Northern blotting with hybridization using a radioactive cDNA probe specific for FATP5.

On to `C=C(c1ccc(C(=O)O)cc1)c1cc2c(cc1C)C(C)(C)CCC2(C)C` [RXR agonist, bexarotene], for which the development of diabetes entry in test [1] is “reverses the development of diabetes”. Further, the “Negative regulation of the expression of FATP5 in the liver of ZDF rats compared with ZLC rats” value in test [2] was “counteracted”.
